pEC50, pIC50: −log10 of the molar value. ≈ marks a conversion by molar mass, not a printed value. Values belong to the molecule of their own block, whether it stands above or below them.
What was measured:
Aurora kinase B = Aurora kinase B (Homo sapiens, UniProt Q96GD4); assay: Inhibition of aurora B kinase using 5TAMRA-GRTGRRNSICOOH as substrate by fluorescent assay; details: for pIC50: read-out: IC50
Aurora kinase A = target: T1, Aurora kinase A (Homo sapiens, UniProt O14965); assay: Inhibition of aurora A kinase using 5TAMRA-GRTGRRNSICOOH as substrate by fluorescent assay
T1 sequence (O14965 whole entry): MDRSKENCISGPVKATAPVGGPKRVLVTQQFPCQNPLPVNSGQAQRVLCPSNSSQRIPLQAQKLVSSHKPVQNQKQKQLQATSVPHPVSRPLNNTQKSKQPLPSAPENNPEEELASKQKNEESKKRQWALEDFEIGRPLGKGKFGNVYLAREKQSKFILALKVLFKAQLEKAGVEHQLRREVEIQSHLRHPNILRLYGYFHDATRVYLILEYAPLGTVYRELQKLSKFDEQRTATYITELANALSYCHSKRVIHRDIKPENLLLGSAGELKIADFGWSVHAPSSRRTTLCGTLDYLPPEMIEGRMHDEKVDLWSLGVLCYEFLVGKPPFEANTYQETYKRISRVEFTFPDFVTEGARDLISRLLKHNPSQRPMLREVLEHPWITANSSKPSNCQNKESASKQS

cells = assay type: cell-based; details: Homo sapiens, HCT-116, 1 h
[1] = Clearance in mouse; assay type: ADME, organism-based; details: in vivo
Cytochrome P450 3A4 = Cytochrome P450 3A4 (Homo sapiens, UniProt P08684); assay: inhibition of CYP3A4; assay type: ADME
[2] = Permeability across apical to basolateral side in human Caco2 cell membrane; assay type: ADME, cell-based; details: Caco-2, read-out: permeability
[3] = target: Rho-associated protein kinase 2 (Homo sapiens, UniProt O75116); assay: Inhibition of Rock2
[4] = target: Tyrosine-protein kinase Lck (Homo sapiens, UniProt P06239); assay: Inhibition of LCK
[5] = target: Serine/threonine-protein kinase Chk1 (Homo sapiens, UniProt O14757); assay: Inhibition of Chk1
[6] = target: Vascular endothelial growth factor receptor 2 (Homo sapiens, UniProt P35968); assay: Inhibition of VEGFR2
Cytochrome P450 2D6 = Cytochrome P450 2D6 (Homo sapiens, UniProt P10635); assay: inhibition of CYP2D6; assay type: ADME
[7] = target: Serine/threonine-protein kinase PLK3 (Homo sapiens, UniProt Q9H4B4); assay: Inhibition of PLK3
[8] = target: Mitogen-activated protein kinase 1 (Homo sapiens, UniProt P28482); assay: Inhibition of ERK2
[9] = target: Protein kinase C alpha type (Homo sapiens, UniProt P17252); assay: Inhibition of PKCa
[10] = target: Serine/threonine-protein kinase 3 (Homo sapiens, UniProt Q13188); assay: Inhibition of MST2
Cytochrome P450 2C9 = Cytochrome P450 2C9 (Homo sapiens, UniProt P11712); assay: inhibition of CYP2C9; assay type: ADME
[11] = target: Ribosomal protein S6 kinase alpha-3 (Homo sapiens, UniProt P51812); assay: Inhibition of RSK2
[12] = target: Tyrosine-protein kinase JAK2 (Homo sapiens, UniProt O60674); assay: Inhibition of Jak2
[13] = target: RAC-alpha serine/threonine-protein kinase (Homo sapiens, UniProt P31749); assay: Inhibition of Akt1
[14] = target: Testis-specific serine/threonine-protein kinase 2 (Homo sapiens, UniProt Q96PF2); assay: Inhibition of TSSK2
[15] = Clearance in human hepatocytes assessed per million cells; assay type: ADME, cell-based, Liver, Hepatocyte
[16] = target: Inhibitor of nuclear factor kappa-B kinase subunit beta (Homo sapiens, UniProt O14920); assay: Inhibition of IKKb
[17] = Oral bioavailability in mouse; assay type: ADME, organism-based; details: in vivo
hERG (KCNH2) = hERG (KCNH2) (Homo sapiens, UniProt Q12809); assay: Inhibition of human ERG assessed as Rb efflux at 1.5 ug/ml
[18] = target: Calcium/calmodulin-dependent protein kinase type IV (Homo sapiens, UniProt Q16566); assay: Inhibition of Camk4
[19] = target: Interleukin-1 receptor-associated kinase 4 (Homo sapiens, UniProt Q9NWZ3); assay: Inhibition of IRAK4
[20] = target: Hepatocyte growth factor receptor (Homo sapiens, UniProt P08581); assay: Inhibition of cMet
[21] = Plasma protein binding in human; assay type: ADME, cell-free; details: read-out: PPB (converted)
[22] = Aqueous solubility of the compound; assay type: physicochemical; details: buffer
[23] = Inhibition of IGRF

Aurora kinase B, sequence (Q96GD4 whole entry): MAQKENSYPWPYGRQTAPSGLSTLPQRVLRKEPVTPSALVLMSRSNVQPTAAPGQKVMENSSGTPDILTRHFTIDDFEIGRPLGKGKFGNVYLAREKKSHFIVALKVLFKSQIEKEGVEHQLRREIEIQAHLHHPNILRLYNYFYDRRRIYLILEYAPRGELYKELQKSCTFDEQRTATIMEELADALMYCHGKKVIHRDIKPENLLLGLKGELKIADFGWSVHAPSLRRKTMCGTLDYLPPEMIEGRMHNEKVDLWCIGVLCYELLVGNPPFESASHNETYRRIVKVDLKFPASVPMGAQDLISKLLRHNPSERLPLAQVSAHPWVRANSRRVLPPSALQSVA
Serine/threonine-protein kinase Chk1, sequence (O14757 whole entry): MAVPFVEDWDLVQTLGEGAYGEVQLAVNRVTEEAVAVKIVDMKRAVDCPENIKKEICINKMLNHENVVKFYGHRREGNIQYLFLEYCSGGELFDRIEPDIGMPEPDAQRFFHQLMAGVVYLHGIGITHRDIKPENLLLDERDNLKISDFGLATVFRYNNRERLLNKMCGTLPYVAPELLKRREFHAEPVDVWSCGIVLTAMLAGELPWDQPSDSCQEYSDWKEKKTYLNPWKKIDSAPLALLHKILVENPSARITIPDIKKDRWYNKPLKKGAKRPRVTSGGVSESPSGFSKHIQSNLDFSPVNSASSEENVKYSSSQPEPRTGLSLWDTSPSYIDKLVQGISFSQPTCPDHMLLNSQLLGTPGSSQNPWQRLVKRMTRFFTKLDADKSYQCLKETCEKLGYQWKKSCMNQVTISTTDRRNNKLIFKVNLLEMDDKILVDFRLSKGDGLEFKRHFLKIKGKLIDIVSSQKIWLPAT
Tyrosine-protein kinase JAK2, sequence (O60674 whole entry): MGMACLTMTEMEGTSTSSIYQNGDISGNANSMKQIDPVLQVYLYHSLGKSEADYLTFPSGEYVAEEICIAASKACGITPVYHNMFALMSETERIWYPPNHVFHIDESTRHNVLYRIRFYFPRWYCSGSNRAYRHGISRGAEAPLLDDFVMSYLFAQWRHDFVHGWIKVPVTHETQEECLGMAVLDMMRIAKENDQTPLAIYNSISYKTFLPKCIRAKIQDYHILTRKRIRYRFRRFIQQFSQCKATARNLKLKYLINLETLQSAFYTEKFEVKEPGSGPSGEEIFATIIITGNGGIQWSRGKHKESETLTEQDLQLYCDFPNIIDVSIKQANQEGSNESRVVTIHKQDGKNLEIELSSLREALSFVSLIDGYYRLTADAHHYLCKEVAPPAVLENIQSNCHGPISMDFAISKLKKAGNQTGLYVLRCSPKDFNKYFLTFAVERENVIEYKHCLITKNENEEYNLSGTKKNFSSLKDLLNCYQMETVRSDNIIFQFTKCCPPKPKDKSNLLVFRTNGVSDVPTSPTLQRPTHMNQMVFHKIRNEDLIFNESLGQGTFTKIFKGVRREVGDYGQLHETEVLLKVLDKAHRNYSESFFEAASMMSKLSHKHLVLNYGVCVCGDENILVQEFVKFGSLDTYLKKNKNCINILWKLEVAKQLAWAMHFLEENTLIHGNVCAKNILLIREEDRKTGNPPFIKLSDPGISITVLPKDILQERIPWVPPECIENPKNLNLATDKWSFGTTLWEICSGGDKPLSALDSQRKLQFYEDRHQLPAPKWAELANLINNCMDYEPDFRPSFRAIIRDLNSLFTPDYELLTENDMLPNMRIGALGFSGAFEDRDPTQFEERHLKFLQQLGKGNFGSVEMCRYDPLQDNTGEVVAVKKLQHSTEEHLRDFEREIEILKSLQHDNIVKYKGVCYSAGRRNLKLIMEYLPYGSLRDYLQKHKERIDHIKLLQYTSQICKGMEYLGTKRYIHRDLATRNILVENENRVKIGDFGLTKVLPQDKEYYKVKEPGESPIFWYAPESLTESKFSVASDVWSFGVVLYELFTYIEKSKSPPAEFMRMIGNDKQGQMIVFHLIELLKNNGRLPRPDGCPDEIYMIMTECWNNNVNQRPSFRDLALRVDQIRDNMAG
Ribosomal protein S6 kinase alpha-3, sequence (P51812 whole entry): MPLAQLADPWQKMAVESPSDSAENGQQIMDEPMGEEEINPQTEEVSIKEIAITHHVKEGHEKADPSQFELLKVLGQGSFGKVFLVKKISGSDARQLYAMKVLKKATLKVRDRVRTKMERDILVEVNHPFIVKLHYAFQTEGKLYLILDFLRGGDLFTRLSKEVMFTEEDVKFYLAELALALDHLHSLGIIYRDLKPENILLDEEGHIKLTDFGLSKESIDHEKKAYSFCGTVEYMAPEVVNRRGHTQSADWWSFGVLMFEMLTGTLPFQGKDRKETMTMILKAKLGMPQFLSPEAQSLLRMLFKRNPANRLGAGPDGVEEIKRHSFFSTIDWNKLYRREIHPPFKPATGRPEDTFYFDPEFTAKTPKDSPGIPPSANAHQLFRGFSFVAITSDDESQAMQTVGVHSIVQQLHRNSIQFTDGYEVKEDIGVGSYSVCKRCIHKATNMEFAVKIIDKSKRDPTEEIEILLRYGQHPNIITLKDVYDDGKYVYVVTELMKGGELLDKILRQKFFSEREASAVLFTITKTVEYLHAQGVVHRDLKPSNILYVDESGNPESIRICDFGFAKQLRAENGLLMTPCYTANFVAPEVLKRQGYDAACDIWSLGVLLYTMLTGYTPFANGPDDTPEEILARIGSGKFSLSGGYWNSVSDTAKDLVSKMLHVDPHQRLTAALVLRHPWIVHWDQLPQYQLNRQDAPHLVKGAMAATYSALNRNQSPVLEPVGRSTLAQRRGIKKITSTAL
Serine/threonine-protein kinase PLK3, sequence (Q9H4B4 whole entry): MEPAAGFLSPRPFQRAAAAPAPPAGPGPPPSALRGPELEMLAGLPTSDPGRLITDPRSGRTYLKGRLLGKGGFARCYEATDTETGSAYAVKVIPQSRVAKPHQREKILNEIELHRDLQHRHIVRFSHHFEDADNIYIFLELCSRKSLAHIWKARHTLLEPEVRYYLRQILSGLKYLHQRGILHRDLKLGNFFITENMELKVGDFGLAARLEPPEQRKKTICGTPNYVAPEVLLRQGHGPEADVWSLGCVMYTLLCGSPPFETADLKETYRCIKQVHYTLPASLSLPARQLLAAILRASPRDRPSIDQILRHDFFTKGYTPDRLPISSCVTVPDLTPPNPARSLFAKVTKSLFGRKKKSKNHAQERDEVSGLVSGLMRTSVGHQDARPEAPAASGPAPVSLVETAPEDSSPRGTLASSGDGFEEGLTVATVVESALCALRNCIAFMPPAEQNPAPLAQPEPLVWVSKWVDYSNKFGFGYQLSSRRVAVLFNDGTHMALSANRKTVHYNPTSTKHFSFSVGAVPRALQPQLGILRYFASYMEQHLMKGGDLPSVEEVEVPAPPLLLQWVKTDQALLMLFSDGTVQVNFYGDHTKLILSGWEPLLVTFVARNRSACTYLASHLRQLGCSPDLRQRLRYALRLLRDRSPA
Testis-specific serine/threonine-protein kinase 2, sequence (Q96PF2 whole entry): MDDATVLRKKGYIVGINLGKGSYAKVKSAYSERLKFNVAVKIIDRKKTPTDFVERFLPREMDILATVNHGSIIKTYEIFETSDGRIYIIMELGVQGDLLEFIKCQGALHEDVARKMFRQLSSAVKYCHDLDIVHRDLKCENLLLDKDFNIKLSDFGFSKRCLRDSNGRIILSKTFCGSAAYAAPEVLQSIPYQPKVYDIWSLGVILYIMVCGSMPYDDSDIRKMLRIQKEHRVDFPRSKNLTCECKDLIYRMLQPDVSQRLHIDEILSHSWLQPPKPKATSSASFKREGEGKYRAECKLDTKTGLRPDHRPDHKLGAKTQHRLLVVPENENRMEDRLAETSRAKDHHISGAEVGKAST
Cytochrome P450 3A4, sequence (P08684 whole entry): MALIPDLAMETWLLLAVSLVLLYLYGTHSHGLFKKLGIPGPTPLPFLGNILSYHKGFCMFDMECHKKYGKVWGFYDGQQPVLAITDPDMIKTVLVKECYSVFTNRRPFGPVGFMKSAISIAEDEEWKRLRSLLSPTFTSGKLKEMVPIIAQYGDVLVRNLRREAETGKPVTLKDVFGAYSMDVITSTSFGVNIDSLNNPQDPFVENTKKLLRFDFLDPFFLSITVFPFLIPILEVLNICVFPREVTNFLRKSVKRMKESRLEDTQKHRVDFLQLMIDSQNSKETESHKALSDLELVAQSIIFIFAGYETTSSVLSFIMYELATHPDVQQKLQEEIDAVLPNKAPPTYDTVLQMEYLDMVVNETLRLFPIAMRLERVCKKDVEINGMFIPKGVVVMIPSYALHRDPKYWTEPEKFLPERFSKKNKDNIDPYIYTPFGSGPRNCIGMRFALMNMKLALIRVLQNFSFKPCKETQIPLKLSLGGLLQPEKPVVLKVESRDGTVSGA
Inhibitor of nuclear factor kappa-B kinase subunit beta, sequence (O14920 whole entry): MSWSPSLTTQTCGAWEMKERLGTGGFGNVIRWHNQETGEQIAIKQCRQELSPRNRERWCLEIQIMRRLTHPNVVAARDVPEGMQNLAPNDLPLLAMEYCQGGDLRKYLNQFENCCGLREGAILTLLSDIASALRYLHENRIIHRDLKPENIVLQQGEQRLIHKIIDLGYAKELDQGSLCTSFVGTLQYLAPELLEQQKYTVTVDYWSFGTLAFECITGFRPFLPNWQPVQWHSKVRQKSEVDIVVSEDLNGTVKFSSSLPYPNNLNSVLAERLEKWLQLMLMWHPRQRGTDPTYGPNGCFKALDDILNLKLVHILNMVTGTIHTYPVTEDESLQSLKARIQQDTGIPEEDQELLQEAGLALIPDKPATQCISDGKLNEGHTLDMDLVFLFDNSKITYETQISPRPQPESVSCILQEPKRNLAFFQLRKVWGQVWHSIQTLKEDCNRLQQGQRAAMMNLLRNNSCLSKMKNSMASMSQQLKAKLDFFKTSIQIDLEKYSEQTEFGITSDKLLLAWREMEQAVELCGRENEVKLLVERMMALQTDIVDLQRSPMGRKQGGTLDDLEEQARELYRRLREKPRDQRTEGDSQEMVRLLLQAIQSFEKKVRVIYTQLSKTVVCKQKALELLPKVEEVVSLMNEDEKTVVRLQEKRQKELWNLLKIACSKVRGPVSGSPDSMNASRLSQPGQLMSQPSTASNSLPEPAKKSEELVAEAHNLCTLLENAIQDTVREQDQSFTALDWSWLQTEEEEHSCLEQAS

Compound: Cc1cc(Nc2nc([S+](C)[O-])cn3c(-c4cn[nH]c4)cnc23)sn1 (racemic)
- pIC50 (Aurora kinase B): 6.73
- pIC50 (Aurora kinase A): 7.52
- pEC50 (cells): < 5.00

Compound: Cc1cc(Nc2nc(C)cn3c(-c4cn[nH]c4)cnc23)sn1
- pIC50 (Aurora kinase B): ≥ 7.89
- pEC50 (cells): 6.60

Compound: Cc1cc(Nc2nc(-c3cccnc3)cn3c(-c4cn[nH]c4)cnc23)sn1
- pIC50 (Aurora kinase B): 7.21
- pIC50 (Aurora kinase A): 8.10
- pEC50 (cells): < 5.00

Compound: Cc1cc(Nc2nc(C#N)cn3c(-c4cn[nH]c4)cnc23)sn1
- pIC50 (Aurora kinase B): 6.66
- pIC50 (Aurora kinase A): 7.34
- pEC50 (cells): < 5.00

Compound: Cc1cc(Nc2nc(SCCN(C)C)cn3c(-c4cn[nH]c4)cnc23)sn1
- pEC50 (cells): < 5.00

Compound: Cc1cc(Nc2nc(C(F)(F)F)cn3c(-c4cn[nH]c4)cnc23)sn1
- pIC50 (Aurora kinase B): 6.60
- pIC50 (Aurora kinase A): 7.57
- pEC50 (cells): < 5.00

Compound: CSc1cn2c(-c3cn[nH]c3)cnc2c(Nc2cc(C)ns2)n1
- clearance [1]: 89 mL/min/kg
- INH (Cytochrome P450 3A4): > 20 µM
- Papp A→B [2]: 63.3 ×10⁻⁶ cm/s
- pIC50 [3]: < 5.00
- pIC50 [4]: 6.33
- pIC50 [5]: 6.73
- pIC50 [6]: 7.44
- INH (Cytochrome P450 2D6): > 20 µM
- pIC50 [7]: 6.11
- pIC50 [8]: < 5.00
- pIC50 [9]: < 5.00
- pIC50 [10]: < 5.00
- INH (Cytochrome P450 2C9): > 20 µM
- pIC50 [11]: 5.88
- pIC50 [12]: < 5.00
- pIC50 [13]: < 5.00
- pIC50 [14]: < 5.00
- pIC50 (Aurora kinase B): ≥ 7.89
- hepatocyte CLint [15]: 49.7 µL/min/1e6 cells
- pIC50 [16]: < 5.00
- bioavailability [17]: 4%
- pEC50 (cells): 6.22
- inhibition at 1.5 ug/ml (hERG (KCNH2)): 8.7%
- pIC50 [18]: < 5.00
- pIC50 [19]: 6.78
- pIC50 [20]: < 5.00
- fraction unbound [21]: 0.006
- solubility [22]: 25 µM (≈ 8.59 µg/mL)
- pIC50 [23]: < 5.00

Compound: Cc1cc(Nc2nc(CN3CCOCC3)cn3c(-c4cn[nH]c4)cnc23)sn1
- pIC50 (Aurora kinase B): 6.96
- pIC50 (Aurora kinase A): 7.30
- pEC50 (cells): < 5.00

Compound: CCSc1cn2c(-c3cn[nH]c3)cnc2c(Nc2cc(C)ns2)n1
- pIC50 (Aurora kinase B): 7.62

Compound: Cc1cc(Nc2nc(CCN)cn3c(-c4cn[nH]c4)cnc23)sn1
- pIC50 (Aurora kinase B): 7.48
- pIC50 (Aurora kinase A): 7.08
- pEC50 (cells): < 5.00

Compound: Cc1cc(Nc2nc(C3CC3)cn3c(-c4cn[nH]c4)cnc23)sn1
- pIC50 (Aurora kinase B): 7.29
- pIC50 (Aurora kinase A): 7.77
- pEC50 (cells): 5.59

Compound: CCc1cn2c(-c3cn[nH]c3)cnc2c(Nc2cc(C)ns2)n1
- pIC50 (Aurora kinase B): ≥ 7.89
- pEC50 (cells): 6.07

Compound: Cc1cc(Nc2nc(SC(C)(C)C)cn3c(-c4cn[nH]c4)cnc23)sn1
- pIC50 (Aurora kinase B): 6.57
- pEC50 (cells): 5.25

More lines, now with the values ahead:

- pIC50 (Aurora kinase B): 6.92
- pIC50 (Aurora kinase A): 7.09
Compound: O=S(=O)(c1ccc(Nc2nccn3c(-c4cn[nH]c4)cnc23)cc1)N1CCOCC1

- pIC50 (Aurora kinase B): 5.52
- pIC50 (Aurora kinase A): 5.60
Compound: Cc1csc(Nc2nccn3c(-c4cnn(C)c4)cnc23)c1

- IC50 (Aurora kinase B): Not Active
- pIC50 (Aurora kinase A): < 5.00
Compound: Cc1nsc(Nc2nccn3c(-c4cnn(C)c4)cnc23)n1

- IC50 (Aurora kinase B): Not Active
- pIC50 (Aurora kinase A): < 5.00
Compound: Cc1csc(Nc2nccn3c(-c4cnn(C)c4)cnc23)n1

- pIC50 (Aurora kinase B): 6.15
- pIC50 (Aurora kinase A): 6.19
Compound: CC(C)c1cc(Nc2nccn3c(-c4cnn(C)c4)cnc23)sn1

- pIC50 (Aurora kinase B): 6.70
- pIC50 (Aurora kinase A): 5.80
Compound: Cn1cc(-c2cnc3c(Nc4cc(C5CCNCC5)ns4)nccn23)cn1

- IC50 (Aurora kinase B): Not Active
- pIC50 (Aurora kinase A): 5.43
Compound: CN(C)S(=O)(=O)c1ccc(Nc2nccn3c(-c4cnn(C)c4)cnc23)cc1

- pIC50 (Aurora kinase B): < 5.52
- pIC50 (Aurora kinase A): 6.22
Compound: Cc1cc(Nc2nc(S(C)(=O)=O)cn3c(-c4cn[nH]c4)cnc23)sn1

- pIC50 (Aurora kinase B): 6.96
- pIC50 (Aurora kinase A): 6.77
Compound: Cn1cc(-c2cnc3c(Nc4cc(C5CCN(S(C)(=O)=O)CC5)ns4)nccn23)cn1

- pIC50 (Aurora kinase B): 7.74
- pIC50 (Aurora kinase A): 8.22
- pEC50 (cells): 5.89
Compound: CS(=O)(=O)N1CCC(c2cc(Nc3nccn4c(-c5cn[nH]c5)cnc34)sn2)CC1

- IC50 (Aurora kinase B): Not Active
- pIC50 (Aurora kinase A): < 5.00
Compound: CN(C)c1cccc(Nc2nccn3c(-c4cnn(C)c4)cnc23)c1

- pIC50 (Aurora kinase B): 6.89
- pEC50 (cells): 5.60
Compound: Cc1cc(Nc2nc(Sc3ccc(F)cc3)cn3c(-c4cn[nH]c4)cnc23)sn1

- pIC50 (Aurora kinase B): ≥ 7.89
- pIC50 (Aurora kinase A): ≥ 8.40
- pEC50 (cells): 5.89
Compound: Cc1cc(Nc2nccn3c(-c4cn[nH]c4)cnc23)sn1

- pIC50 (Aurora kinase B): 6.44
- pIC50 (Aurora kinase A): 6.24
Compound: Cc1cc(Nc2nccn3c(-c4cnn(C)c4)cnc23)sn1
